In patent US7803563B2, “Method for screening the receptor-ligand binding in live cell” (Shanghai Institutes for Biological Sciences, CAS, priority 2006, dated 2010):
“Also recorded” adds a separate entry of the source.

Columns and labels:
Type in all cases: cell-based, Wistar rats
DRG = assay: Differential FEI labeling with FM2-10 and FM4-64 and KCl discharge; conditions: for numbers of endocytic vesicles induced by the two ligands: sequential ADP and 5-HT incubation with two FM dyes in the same cell, FIG. 8D
Procedure: This capability, for example, may be used to probe the vesicle sorting or trafficking inside the cells. It is known that GPCRs are active cargos for the internalized vesicles, and each different type of GPCR vesicles may have its own sorting pathway. To investigate different sorting paths of vesicles internalized under different conditions (time, ligand, etc.), vesicles can be labeled with FM dyes of different colors in the same cell.
As shown in the left panel, the cells in a dish is incubated with ADP and FM2-10 (green fluorophore). Then, the dye and ADP are washed away and a second incubation is performed with 5-HT and FM4-64 (red fluorophone). The cells are again washed and monitored with a confocal microscope, as illustrated in the right panel. Both FM2-10 and FM4-64 can be excited with a light at 488 nm. The emission of FM2-10 can be monitored at 530-600 nm, while the emission of FM4-64 can be monitored at >635 nm.
To test whether there is a common sorting pathways for the ADP-induced and 5-HT-induced endocytic vesicles, the cell was treated with 80 mM KCL for three minutes.

DRG cells = assay: Multi-well (2×2) FEI protocol; conditions: 3 minutes, FIG. 9C
Procedure: FIGS. 9A-9B illustrate a method of the invention that could be used for high throughput evaluation of LRB-induced endocytosis in a multi-well (here 2×2) format. The multi-well plate is the same as a standard cell culture plate, except that a 0.17 mm-thick glass cover-slip constitutes part of the bottom in each well. In this example, single DRG cells were plated on the cover-slips in the wells.
Well (1,1) is incubated with ES and FM, without any ligand. Well (1,2) is incubated with 80 mM KCl and FM. Well (2,1) is incubated with 0.1 mM ADP and FM. Well (2,2) is incubated with ADP, Suramin, and FM. The incubations are all performed for 3 minutes.
Each well was scanned in sequence to obtain the images shown in FIG. 9B, and the endocytic signal (FM spots/cell) were analyzed and presented in histograms (FIG. 9C). […] Within each column, the top image is a transmission microscopy image, showing the cells in the well. The cell bracketed by the square in each well is chosen for image analysis.
The selected cells are scanned for FM images of single OSs (middle image) as well as the global image (bottom image) in each cell (FIG. 9B).

δ-opioid-DOR = molecular target: T1, δ-opioid-DOR (Rattus norvegicus, UniProt P33533)
T1 construct: endogenous in cells; host or cells: freshly dissociated small DRG neurons of Wistar rats
T1 sequence (P33533 whole entry): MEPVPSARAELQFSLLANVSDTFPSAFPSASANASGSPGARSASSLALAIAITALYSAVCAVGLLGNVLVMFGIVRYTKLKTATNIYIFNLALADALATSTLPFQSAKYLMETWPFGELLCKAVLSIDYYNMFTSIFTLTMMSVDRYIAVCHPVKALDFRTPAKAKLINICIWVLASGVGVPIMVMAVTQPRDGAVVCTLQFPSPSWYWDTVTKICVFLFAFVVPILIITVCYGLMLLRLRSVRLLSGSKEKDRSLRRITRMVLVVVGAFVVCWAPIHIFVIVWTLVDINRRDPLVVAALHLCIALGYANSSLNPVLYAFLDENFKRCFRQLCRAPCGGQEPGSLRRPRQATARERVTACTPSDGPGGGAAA

5HT-R = assay: FM endocytosis imaging (FEI) of 5-HT-induced endocytosis in DRG neuron
Text: (§1) Methods of the invention are based on FM endocytosis imaging (FEI). Confocal imaging can be used to measure the endocytosis induced by ligand-receptor binding (LRB). The principles of FM endocytosis imaging (FEI) method are: (i) an extracellular styryl FM dye (e.g., FM2-10) is taken up by the endocytic vesicles; and (ii) the FM molecule becomes 100 times brighter after uptake into vesicles. Thus, after proper stimulation, individual FM-loaded vesicles become visible images by standard confocal microscopy.
(§2) FIG. 2A illustrate a method of the invention. […] The ligand binds to the receptor and triggers receptor internalization (endocytosis). In the endocytosis process, the FM dye is internalized in endocytic vesicles. […]
(§3) The dye-containing vesicles in the cell may be imaged with a confocal fluorescence microscope, such as Zeiss LSM 510 (Germany). […]
(§4) The FM spots in each OS can be counted manually or automatically, e.g., with the aid of a software. […] Thus, the pixel sizes of the images may be properly adjusted so that FM spots corresponding to the vesicles are counted. One of ordinary skill in the art would appreciate that the images may be manipulated with techniques known in the art, e.g., smoothing, and the dynamic range (intensity range) may be adjusted so that majority (e.g., >90%) of the fluorescent spots are counted, with minimum interference from background noises. […]

[1] = molecular target: T2, receptor of the tyrosine kinase (RTK) family (Rattus norvegicus, UniProt P35739); assay: FM endocytosis imaging (FEI) of NGF-induced endocytosis in DRG neuron; conditions: NGF 50 ng/ml
T2 construct: endogenous in cells; host or cells: freshly dissociated small DRG neurons of Wistar rats
T2 sequence (P35739 33-799): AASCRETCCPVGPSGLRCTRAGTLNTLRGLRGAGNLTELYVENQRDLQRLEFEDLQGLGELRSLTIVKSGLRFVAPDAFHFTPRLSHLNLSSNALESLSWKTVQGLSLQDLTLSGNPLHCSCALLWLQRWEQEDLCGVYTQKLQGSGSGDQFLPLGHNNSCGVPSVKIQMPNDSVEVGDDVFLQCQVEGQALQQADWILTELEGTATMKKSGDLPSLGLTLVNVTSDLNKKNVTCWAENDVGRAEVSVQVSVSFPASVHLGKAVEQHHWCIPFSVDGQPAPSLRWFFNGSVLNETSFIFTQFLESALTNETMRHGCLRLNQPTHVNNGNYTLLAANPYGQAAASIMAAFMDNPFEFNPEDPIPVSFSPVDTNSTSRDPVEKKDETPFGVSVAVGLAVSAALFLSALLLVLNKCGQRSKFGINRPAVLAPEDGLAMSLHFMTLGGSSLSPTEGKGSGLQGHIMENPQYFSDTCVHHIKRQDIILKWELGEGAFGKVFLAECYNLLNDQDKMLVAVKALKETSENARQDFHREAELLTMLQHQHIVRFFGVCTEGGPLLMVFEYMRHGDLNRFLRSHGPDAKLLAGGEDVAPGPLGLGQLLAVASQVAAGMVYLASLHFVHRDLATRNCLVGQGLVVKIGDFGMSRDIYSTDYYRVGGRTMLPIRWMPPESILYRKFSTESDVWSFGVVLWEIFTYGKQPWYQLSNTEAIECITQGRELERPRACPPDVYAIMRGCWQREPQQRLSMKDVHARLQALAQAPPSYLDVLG
Text: as §1, §2, §3, §4

P2Y = assay: FM endocytosis imaging (FEI) of ADP-induced endocytosis in single DRG neuron
Text: as §1
FIG. 2A illustrate a method of the invention. […] The ligand binds to the receptor and triggers receptor internalization (endocytosis). In the endocytosis process, the FM dye is internalized in endocytic vesicles. Subsequently, the excess FM-dye may be washed away, leaving behind cells loaded with dye filled vesicles that are observable due to the fluorescent dye. Using this procedure, single vesicles in a single cell can be visualized by FM imaging. Note that while this example uses an FM dye, other suitable dyes may also be used without departing from the scope of the invention. […] Therefore, some methods of the invention may not include the washing step.
When a confocal microscope is used, the images may be takes in different optical slices (OSs) based on different focal depth. […] The data can be observed as the distribution of FM spots (individual vesicles) in each OS or as a global view, which is a projection overlaying the FM images from different OSs. An advantage of viewing the individual OS is the ability to track the location of the endocytic vesicles within the cell. This would permit studies of vesicle trafficking inside the cells. The advantage of the global view is the total number of vesicles are observed and, therefore, it provides a maximum sensitivity for assay use. For example, the global view may be used to monitor LRB events as a function of time—e.g., in real-time monitoring. […]
as §3

DRG neuron = assay: Time-resolved FEI recording (FIF recording)
Text: Methods of the invention, as noted above, can provide images of endocytic vesicles with relative ease. Thus, these methods for detecting LRB-induced endocytosis can be used in real time to monitor the endocytosis processes. […] In real-time applications, the FEI methods described above may be modified as follows to provide better FIF results: (i) the spatial resolution can be reduced, i.e., OS thickness increased, to increase detection sensitivity; (ii) the confocal scan can be made at a fixed z-position (normally near the middle of the cell); and (iii) cell images can be obtained in the presence of extracellular FM dye (i.e., no need to wash away the dye outside the cells). Under these conditions, FIF recording can rapidly acquire many x-y images of the cell after ligand binding in order to monitor the LRB induced events in real time.
FIG. 7A illustrates a setup for performing a real-time recording of LRB-induced events. As illustrated, the cell is bathed in an ES solution containing a fluorescent dye (e.g., FM2-10), and the OS is selected to a thickness of about […] to have a better sensitivity. […] This is to provide background readings before the ligand is added. From image frame K+1 to image frame m (i.e., from tk+1 to tm), the cell is incubated with the ligand (ADP) in the ES solution. […]
The fluorescence intensity is proportional to the total number of endocytic vesicles. […]

Compound: [Cl-].[K+] [KCl]
- green/5HT-R vesicles discharged (DRG; 80 mM KCL for three minutes, 5-HT-induced vesicles, FIG. 8E): about 37%
- red/P2Y vesicles discharged (DRG; 80 mM KCL for three minutes, ADP-induced vesicles, FIG. 8E): about 43%
- vesicles lost after the KCl treatment (DRG; 80 mM KCL for three minutes, FIG. 8C): significant amount of vesicles were lost

Compound: Cc1ccc(C(=O)Nc2ccc(S(=O)(=O)O)c3cc(S(=O)(=O)O)cc(S(=O)(=O)O)c23)cc1NC(=O)c1cccc(NC(=O)Nc2cccc(C(=O)Nc3cc(C(=O)Nc4ccc(S(=O)(=O)O)c5cc(S(=O)(=O)O)cc(S(=O)(=O)O)c45)ccc3C)c2)c1 [suramin]
- inhibition of ADP-induced endocytosis (FM spots/cell) (DRG cells; ADP, Suramin, and FM): inhibited

Compound: CC(C)[C@H](NC(=O)[C@H](CCC(=O)O)NC(=O)[C@H](Cc1ccccc1)NC(=O)[C@@H](C)NC(=O)[C@@H](N)Cc1ccc(O)cc1)C(=O)N[C@H](C(=O)NCC(=O)O)C(C)C [deltorphin]
- number of FM spots relative to those induced by AR, GABAB, and mAChR (δ-opioid-DOR): 2-3 times

Compound: NCCc1c[nH]c2ccc(O)cc12 [5-HT, 5-hydroxytryptamine]
- numbers of endocytic vesicles induced by the two ligands (DRG): similar
- endocytic vesicles (FM spots) (5HT-R; 5-HT 0.1 mM vs control incubated with ES 3 minutes): substantial increases
- number of FM spots relative to those induced by AR, GABAB, and mAChR (5HT-R; ligands separately introduced, FIG. 6B): 2-3 times

Compound: nerve growth factor [NGF]
- endocytic vesicles (FM spots) [1]: substantial increase

Compound: Nc1ncnc2c1ncn2[C@@H]1O[C@H](COP(=O)(O)OP(=O)(O)O)[C@@H](O)[C@H]1O [ADP]
- distribution of endocytic vesicles, medulla compared with periphery (P2Y; ADP-induced vesicles in DRG neuron, histogram FIG. 3C): Almost twice as many
- number of FM spots relative to those induced by AR, GABAB, and mAChR (P2Y; DRG neuron, ligands separately introduced, FIG. 6B): 2-3 times
- number of FM spots (endocytic vesicles) (P2Y; FM+ADP 3 min vs FM+ES control 3 min, single DRG neuron, FIG. 3A/3B): increased dramatically; also recorded: dramatic increase
- number of fluorescent spots (endocytic vesicles) in the cell (DRG neuron; image at t=tm (ADP) vs t=tk (control), DRG neuron): substantial increase
- fluorescence intensity (number of endocytic vesicles) inside the cell (DRG neuron; time course, average of 21 experiments, extracellular FM dye present): significantly increases
- numbers of endocytic vesicles induced by the two ligands (DRG): similar
- endocytosis (FM spots/cell) (DRG cells; 0.1 mM ADP and FM): induced significant endocytosis
